Experiments:
[1] = tested on: MCF-7 human breast carcinoma cells; assay: cell viability, Alamar Blue, MCF-7; type: cell-based; settings: MCF-7, 10 μM, 3 days
Protocol: To further evaluate the selectivity as well as the potential toxicity of inhibitors, we studied their effects on the clotting times of normal human plasma as well as their effects on the proliferation of three cell lines. On the one hand, the inhibitors’ effects on activated partial thromboplastin time (APTT) and prothrombin time (PT) were measured, as described earlier under in vitro conditions,[52]−[55] using variable concentrations (0–2000 μM) (Table 3). […] On the other hand, the antiproliferative properties of inhibitors 13 and 16 were evaluated in three cell lines of breast (MCF-7), intestine (CaCo-2), and kidney (HEK-293) (Figure 5B), as described earlier.[56] […] Overall, inhibitor 16 can be considered for further development as a potent, selective, and nontoxic inhibitor of human FXIIIa.
HEK-293 human embryonic kidney cells,[66] CaCo-2 heterogeneous human epithelial colorectal adenocarcinoma cells,[67] and MCF-7 human breast carcinoma cells[68] were treated as reported previously.[69],[70] […] Subsequently, fluorescence readings (λEx. = 560 nm and λEm. = 590 nm) were taken using the Synergy H1 multiplate reader (BioTek) to quantify cell numbers both in the absence (utilizing distilled water as a control) and the presence of inhibitors 13 and 16 (at a concentration of 10 μM; incubated for 3 days). […]

FXIIIa = molecular target: T1, FXIIIa (Homo sapiens, UniProt P00488); assay: FXIIIa-mediated fibrin(ogen) polymerization by SDS-PAGE; type: biochemical; settings: for effect on FXIIIa-mediated fibrin(ogen) polymerization / γ–γ dimer formation: 5–3000 μM (13), 5–2000 μM (16)
T1 construct: purchased Haematologic Technologies; host or cells: human plasma
T1 sequence (P00488 39-732 limits assumed): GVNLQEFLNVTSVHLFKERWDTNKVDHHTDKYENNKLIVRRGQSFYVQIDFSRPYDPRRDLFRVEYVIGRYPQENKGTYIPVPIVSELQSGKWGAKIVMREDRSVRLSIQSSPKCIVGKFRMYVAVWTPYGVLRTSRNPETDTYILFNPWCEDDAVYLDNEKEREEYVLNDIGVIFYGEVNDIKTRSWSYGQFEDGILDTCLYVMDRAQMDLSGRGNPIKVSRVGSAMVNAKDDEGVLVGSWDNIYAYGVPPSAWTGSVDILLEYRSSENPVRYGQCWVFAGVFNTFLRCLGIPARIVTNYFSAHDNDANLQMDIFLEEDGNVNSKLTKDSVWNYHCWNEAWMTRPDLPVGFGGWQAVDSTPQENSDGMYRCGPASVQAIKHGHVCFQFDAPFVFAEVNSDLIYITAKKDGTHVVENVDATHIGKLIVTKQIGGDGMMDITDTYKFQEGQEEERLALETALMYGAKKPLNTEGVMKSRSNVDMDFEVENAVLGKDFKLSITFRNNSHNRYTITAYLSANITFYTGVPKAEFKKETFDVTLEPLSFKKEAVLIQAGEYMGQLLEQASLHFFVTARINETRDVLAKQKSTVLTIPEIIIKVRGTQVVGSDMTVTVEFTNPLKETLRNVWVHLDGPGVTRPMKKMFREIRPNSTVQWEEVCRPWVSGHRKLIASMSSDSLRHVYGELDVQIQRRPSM
Protocol: The effect of inhibitors 13 and 16 on FXIIIa-mediated fibrin(ogen) polymerization was investigated by sodium dodecyl sulfate-polyacrylamide gel electrophoresis (SDS-PAGE), as reported earlier.[36],[49] A solution containing 13 mg/mL fibrinogen and 2.0 μg/mL FXIIIa in Tris-HCl buffer of pH 7.4 containing 10 mM CaCl2 was either incubated with different concentrations of inhibitors 13 (5, 50, 500, 1000, 2000, and 3000 μM) or 16 (5, 50, 500, 1000, 1500, and 2000 μM) or buffer. The resulting mixture was then clotted in the presence of human α-thrombin (2.5 μg/mL). The clots were incubated for 24 h at room temperature before the addition of denaturing buffer and then incubated overnight at 25 °C. Samples were boiled in a water bath for 10 min before centrifugation at 12 000g at 20 °C for 3 min; the supernatants were examined by SDS-PAGE on homogeneous 10% cross-linked gels and stained with Coomassie Brilliant Blue. The first lane contains the protein markers, whereas the second lane contains the cross-linked fibrin(ogen) formed in the presence of human α-thrombin (Figure 7). […] In both cases, the inhibition appears to achieve 100% efficacy similar to the inhibition assay results.
The impact of inhibitors 13 and 16 on FXIIIa-mediated fibrin polymerization was further explored via gel electrophoresis, as previously described.[36],[49] […] The resulting clots were incubated for 24 h at room temperature before the addition of denaturing buffer containing 25 mM NaH2PO4, 1.9% (w/v) SDS, 5.7 M urea, and 1.9% (w/v) DTT, followed by overnight incubation at room temperature. Subsequently, the samples were boiled in a water bath for 10 min, followed by centrifugation at 12,000g at 20 °C for 3 min; the supernatants were then analyzed by SDS-PAGE on homogeneous 10% cross-linked gels and stained with Coomassie Brilliant Blue.

SMILES | effect on proliferation / cell viability [1] | efficacy of inhibition of fibrin(ogen) polymerization (FXIIIa) | effect on FXIIIa-mediated fibrin(ogen) polymerization / γ–γ dimer formation (FXIIIa)
Nc1c(S(=O)(=O)O)cc(Nc2ccc(Nc3nc(Cl)nc(Nc4ccccc4S(=O)(=O)O)n3)c(S(=O)(=O)O)c2)c2c1C(=O)c1ccccc1C2=O [compound 13] | does not significantly affect the proliferation | ~100% | concentration-dependently inhibited
Nc1c(/N=N/c2ccc(S(=O)(=O)CCOS(=O)(=O)O)cc2)c(S(=O)(=O)O)cc2cc(S(=O)(=O)O)c(/N=N/c3ccc(S(=O)(=O)CCOS(=O)(=O)O)cc3)c(O)c12 [compound 16] | does not significantly affect the proliferation | ~100% | concentration-dependently inhibited

Reference: PMC11256326, “Discovery of Heparin Mimetic, Potent, and Selective Inhibitors of Human Clotting Factor XIIIa” (ACS Omega, 2024)
